Source: paper PMC2610677 (Chemistry & biology, 2008)

Target: trORAS (truncated ORAS) (Neurospora crassa, UniProt Q7S6N4)
Assay: HPLC of CoASH release, initial velocities, Michaelis-Menten fit
Assay type: biochemical
Conditions: malonyl-CoA (100 mM [sic]) as extender; 50 mM Tris-HCl pH 7.0; 30 °C

Which Km does the source give for `CCCCCCCCCCCCCCCCCC(=O)SCCNC(=O)CCNC(=O)[C@H](O)C(C)(C)COP(=O)(O)OP(=O)(O)OC[C@H]1O[C@@H](n2cnc3c(N)ncnc32)[C@H](O)[C@@H]1OP(=O)(O)O` [7a, stearoyl-CoA] here?
Its Km is 3.5 µM.
